Paper PMC7339578, “Multiple circulating alkaloids and saponins from intravenous Kang-Ai injection inhibit human cytochrome P450 and UDP-glucuronosyltransferase isozymes: potential drug–drug interactions” (Chinese Medicine, 2020)

Assays:
[1] = Plasma pharmacokinetics in rats after a 30-min intravenous infusion of Kang-Ai injection; assay type: in vivo, Sprague–Dawley rats; details: male, Sprague-Dawley, in vivo, 30-min iv infusion of Kang-Ai injection 6 mL/kg
Experimental: Specific pathogen free (SPF) grade male Sprague–Dawley rats (250 ± 20) g were provided by the Experimental Animal Center of Zhengzhou University (Zhengzhou, China). These rats were kept in a designated animal room at constant temperature (22 ± 2) °C and humidity (50 ± 20) % with 12 h of light/dark per day and free access to water and food. All protocols of animal experiments were approved in accordance with the Regulations of Experimental Animal Administration issued by the Ethics Review Committee for Animal Experimentation of Jinan University (Ethical Review NO. 20190301010). Prior to the experiments, the rats were fasted for 12 h but with free access to water. After study use, the rats were euthanized with CO2 gas.
The rats in this study all received a single 30-min intravenous infusion of Kang-Ai injection via the tail veins using TYD01-02 infusion pumps (Lead Fluid, Baoding, China). The dose was derived from the label daily dose of Kang-Ai injection (60 mL/person, once daily) according to dose normalization by body surface area. For plasma pharmacokinetic studies, the rats were randomly received a single intravenous 30 min-bolus dose at 6 mL/kg. Blood samples (100 μL) were collected from the rats’ external jugular veins into heparinized polypropylene tubes at 5, 15, 30, 45 min, and 1, 1.5, 2, 3, 4, 6, 8, 12 h. After gently shaking for 10 s, the blood samples were centrifuged at 13000 g for 10 min to yield plasma samples, which were kept frozen at − 80 °C until analysis.
(§1) Pharmacokinetic parameters were estimated by non-compartmental analysis using WinNonlin 6.3 software (Pharsight, NC, US). Data are presented as the mean ± SD (n = 3). The area under the concentration–time curve up to the last measured point in time (AUC0-t) was calculated using the trapezoidal rule. The total plasma clearance (CLtot, p) was calculated by dividing the compound dose by the AUC0-∞, and the distribution volume at steady state (VSS) was estimated by multiplying the CLtot, p by the mean residence time (MRT). The renal excretory clearance (CLR) and hepatobiliary (CLB) was determined by dividing the cumulative amount excreted into urine (Cum.Ae-U) and bile (Cum.Ae-B) by the plasma AUC0-∞, respectively. The fractions of dose excreted into urine (fe-U) and the fractions of dose excreted into bile (fe-B) were established using the relationship Cum.Ae-U/Dose and Cum.Ae-B/Dose, respectively. Mean differences between treatment and control groups were analyzed by two-tailed unpaired Student’s t test by Graphpad Prism V5 software (SanDiego, CA). The level of significance was set at p < 0.05 (∗), p < 0.01 (∗∗) or p < 0.001 (∗∗∗).

[2] = Urinary (renal) excretion in rats after a 30-min infusion of Kang-Ai injection; assay type: in vivo, Sprague–Dawley rats; details: Kang-Ai injection 6 mL/kg iv
Experimental: (§2) For urine sampling, the rats were housed singly in metabolic cages. And then, the urine samples were collected at 0–4, 4–8 and 8–12 h after starting infusion and were weighed. Likewise, bile samples were also collected at 0–3, 3–6, 6–9 and 9–12 h after starting infusion and were weighed. The urine and bile collection tubes were all frozen at − 80 °C.
as §1

[3] = Biliary (hepatobiliary) excretion in rats after a 30-min infusion of Kang-Ai injection; assay type: in vivo, Sprague–Dawley rats; details: rat bile 0–12 h; Kang-Ai injection 6 mL/kg iv
Experimental: as §2, §1

[4] = Protein binding assay (equilibrium dialysis); assay type: in vitro ADME, rat; details: rat plasma; equilibrium dialysis 24 h, 37 °C; 2 μmol/L alkaloids, 4 μmol/L saponins; read-out: fu-plasma (unbound fraction)
Experimental: Binding of circulating alkaloids and saponins to rat plasma was measured by equilibrium dialysis using Spectra/Por 2 dialysis membranes (molecular weight cutoff, 12–14 kDa; Rancho Dominguez, CA, USA) as described. After equilibrating for 24 h at 55 rpm and 37 °C, the dialysate and the plasma were sampled for analysis. […] The concentrations of tested matrine, oxysophocarpine and oxymatrine were 2 μmol/L, while those of astragaloside IV, III, and ginsenosides Rh1, Rg2, Rg1, Rf, Re, Rd, Rc, Rb1, Rb2, notoginsenosides R1, R2, were 4 μmol/L. The unbound fraction (fu-plasma) in rat plasma was calculated as follow: fu-plasma = Cd/Cp × 100%, where the Cd and Cp values were the concentrations of each analyte in the dialysate sample and in the post-dialysis plasma sample, respectively.

[5] = Stability tests of analytes in rat plasma QC samples; assay type: in vitro ADME; details: rat plasma
Experimental: […] The dilution integrity was investigated by analyzing six replicate samples with each analyte, and each analyte were diluted 10-fold with blank rat matrix. Furthermore, the diluted samples were analyzed using freshly prepared calibration curve to calculate RE and RSD, which should be no more than ± 15% as criterion.

Work on CC(C)=CCC[C@](C)(O)[C@H]1CC[C@]2(C)[C@@H]1[C@H](O)C[C@@H]1[C@@]3(C)CC[C@H](O)C(C)(C)[C@@H]3[C@@H](O[C@@H]3O[C@H](CO)[C@@H](O)[C@H](O)[C@H]3O)C[C@]12C [Compound C1, Ginsenoside Rh1] yielded a Cmax ([1]; rat plasma, read-out: Cmax) of 0.14 ± 0.0204 µM, a half-life ([1]; rat plasma, read-out: t1/2 (converted)) of 26.4 ± 23.4 min and a clearance ([1]; rat, Table 1 unit, read-out: CLtot, p (converted)) of 3.31 mL/min. The Vd ([1]; rat, Table 1 unit, read-out: VSS) was 0.0936 ± 0.0456 L, the AUC(0-t) ([1]; rat, iv, rat plasma, read-out: AUC0–12h) was 91.2 ± 4.77 nM·h and the CL renal ([2]; male, Sprague-Dawley, in vivo, rat, read-out: CLR (renal excretory clearance) (converted)) was 0.316 mL/min. For the same compound, the “fe-U,0–12h (fraction of dose excreted into urine)” value ([2]; rat urine 0–12 h) was 9.59 ± 1.68%, the “fe-B,0–12h (fraction of dose excreted into bile)” value [3] was 9.71 ± 0.98% and the fraction unbound at 24 h [4] was 0.463 ± 0.0503. For the same compound, the “At -80 °C for 48 h, Mean±SD” value ([5]; nominal conc. 20 nM) was 22.38 ± 0.33 nM, the “At -80 °C for 48 h, RE” value ([5]; nominal conc. 20 nM) was 13.76% and the “Extracted samples at 8 °C for 18 h, Mean±SD” value (“Extracted samples … Mean±SD” for short) ([5]; nominal conc. 20 nM) was 20.79 ± 2.88 nM. The “Extracted samples at 8 °C for 18 h, RE” value ([5]; nominal conc. 20 nM) was -12.72%, the “Short-term stability at room temperature for 6 h, Mean±SD” value (“Short-term stability … Mean±SD” below) ([5]; nominal conc. 20 nM) was 20.81 ± 2.57 nM and the “Short-term stability at room temperature for 6 h, RE” value (“Short-term stability … for 6 h, RE” below) ([5]; nominal conc. 20 nM) was 13.31%. For the same compound, the “Three freeze-thaw cycles (-80 °C ↔ 23 °C), Mean±SD” value (from here on “Three freeze-thaw cycles … Mean±SD”) ([5]; nominal conc. 20 nM) was 20.14 ± 2.50 nM, the “Three freeze-thaw cycles (-80 °C ↔ 23 °C), RE” value ([5]; nominal conc. 20 nM) was -13.10% and the “At -80 °C for 48 h, Mean±SD” value ([5]; nominal conc. 100 nM) was 88.26 ± 1.17 nM. For the same compound, the “At -80 °C for 48 h, RE” value ([5]; nominal conc. 100 nM) was -13.03%, the “Extracted samples … Mean±SD” value ([5]; nominal conc. 100 nM) was 100.20 ± 11.08 nM and the “Extracted samples at 8 °C for 18 h, RE” value ([5]; nominal conc. 100 nM) was 12.81%. For the same compound, the “Short-term stability … Mean±SD” value ([5]; nominal conc. 100 nM) was 92.25 ± 8.56 nM, the “Short-term stability … for 6 h, RE” value ([5]; nominal conc. 100 nM) was -13.70% and the “Three freeze-thaw cycles … Mean±SD” value ([5]; nominal conc. 100 nM) was 99.91 ± 9.81 nM. The “Three freeze-thaw cycles (-80 °C ↔ 23 °C), RE” value ([5]; nominal conc. 100 nM) was -10.86%, the “At -80 °C for 48 h, Mean±SD” value ([5]; nominal conc. 400 nM) was 379.88 ± 25.01 nM and the “At -80 °C for 48 h, RE” value ([5]; nominal conc. 400 nM) was -9.26%. The “Extracted samples … Mean±SD” value ([5]; nominal conc. 400 nM) was 424.42 ± 36.39 nM, the “Extracted samples at 8 °C for 18 h, RE” value ([5]; nominal conc. 400 nM) was 12.32% and the “Short-term stability … Mean±SD” value ([5]; nominal conc. 400 nM) was 376.44 ± 26.61 nM. For the same compound, the “Short-term stability … for 6 h, RE” value ([5]; nominal conc. 400 nM) was -12.62%, the “Three freeze-thaw cycles … Mean±SD” value ([5]; nominal conc. 400 nM) was 370.01 ± 38.18 nM and the “Three freeze-thaw cycles (-80 °C ↔ 23 °C), RE” value ([5]; nominal conc. 400 nM) was -13.77%.
